The experiment concerns Lactobacillus paracasei viro-01. As to the kind of experiment: Antibiotic sensitivity test (disc). The experiment is classed as cell-based. Conditions: for growth-inhibition zone: Mueller Hinton agar, 37° C., 16 hours; for resistance of Lactobacillus paracasei viro-01 to the antibiotic: judged by the zone limits printed per antibiotic (resistant/moderate/sensitive). How it is done: Antibiotic sensitivity of the Lactobacillus paracasei viro-01 of the present invention were tested. The antibiotic resistance test was carried out by Scientec Lab Center Co., Ltd.(Daejeon city, Daedeok, Korea) approved by the KFDA.
Antibiotics used were Cephalexin, Flumequine, Furazolidone, Gentamycin, Spectinomycin, Tetracycline, Tiamulin, Neomycin, Chloramphenicol and Kanamycin, and test procedures were as described below.
5 to 6 colonies of cultured Lactobacillus paracasei viro-01 were selected, inoculated into bacterial growth medium composed of peptone 10.0 g/L, beef extract 10.0 g/L, yeast extract 5.0 g/L, glucose 20.0 g/L, Tween 80 1.0 mL/L, K2HPO4 2.0 g/L, sodium acetate 5.0 g/L, triammonium citrate 2.0 g/L, MgSO4.7H2O 0.2 g/L and MnSO4.4H2O 0.2 g/L and incubated at 37° C. Turbidity of said culture was adjusted to MacFarland No. 0.5, and used as test bacteria solution. Said test bacteria solution was smeared on Mueller Hinton agar plates and antibiotic sensitivity test disc was added thereto and incubated at 37° C. for 16 hours.
Antibiotic sensitivity was determined by measuring the area of growth inhibition surrounding each test disc.

`CC1CCc2cc(F)cc3c(=O)c(C(=O)O)cn1c23` (centres unmarked) [flumequine, Flumequine]: under “content 10 μg/disc”, the growth-inhibition zone is 0 mm and the “resistance of Lactobacillus paracasei viro-01 to the antibiotic” value (“resistance … to the antibiotic” for short) is listed as “strong”. For the same molecule, the “resistance … to the antibiotic” value (content 10 μg/disc, listed as Flumequine) is reported as “resistance”.
For the setting “content 10 μg/disc”, `NC[C@H]1O[C@H](O[C@H]2[C@H](O)[C@@H](O[C@H]3O[C@H](CO)[C@@H](O)[C@H](N)[C@H]3O)[C@H](N)C[C@@H]2N)[C@H](O)[C@@H](O)[C@@H]1O` [kanamycin, Kanamycin] had a growth-inhibition zone of 9 mm.
For the setting “content 10 μg/disc”, Gentamycin registered a growth-inhibition zone of 13 mm. Further, the “resistance … to the antibiotic” value by setting is: (content 10 μg/disc) “moderate”; (content 10 μg/disc, listed as Gentamycin) “moderate resistance”.
Turning to `C=C[C@]1(C)C[C@@H](OC(=O)CSCCN(CC)CC)[C@]2(C)[C@H](C)CC[C@]3(CCC(=O)[C@H]32)[C@@H](C)[C@@H]1O` [tiamulin, Tiamulin], where the note is “content 10 μg/disc”, the growth-inhibition zone was found to be 28 mm and the “resistance … to the antibiotic” value was “none”. Further, the “resistance … to the antibiotic” value (content 10 μg/disc, listed as Tiamulin) is “no resistance”.
With `O=C1OCCN1/N=C/c1ccc([N+](=O)[O-])o1` [furazolidone, Furazolidone], for the setting “content 10 μg/disc”, the growth-inhibition zone was 0 mm and the “resistance … to the antibiotic” value is recorded as “strong”. In addition, the “resistance … to the antibiotic” value (content 10 μg/disc, listed as Furazolidone) is listed as “resistance”.
For `CN[C@@H]1[C@H](O)[C@H](NC)[C@H]2O[C@@]3(O)C(=O)C[C@@H](C)O[C@H]3O[C@@H]2[C@H]1O` [spectinomycin, Spectinomycin], under “content 10 μg/disc”, the growth-inhibition zone came out at 0 mm and the “resistance … to the antibiotic” value was “strong”. Further, the “resistance … to the antibiotic” value (content 10 μg/disc, listed as Spectinomycin) is reported as “resistance”.
With `O=C(N[C@H](CO)[C@H](O)c1ccc([N+](=O)[O-])cc1)C(Cl)Cl` [chloramphenicol, Chloramphenicol], where the note is “content 30 μg/disc”, the growth-inhibition zone is reported as 30 mm and the “resistance … to the antibiotic” value is listed as “none”. Besides, the “resistance … to the antibiotic” value (content 30 μg/disc, listed as Chloramphenicol) is listed as “no resistance”.
For the setting “content 30 μg/disc”, `CN(C)[C@@H]1C(O)=C(C(N)=O)C(=O)[C@@]2(O)C(O)=C3C(=O)c4c(O)cccc4[C@@](C)(O)[C@H]3C[C@@H]12` [tetracycline, Tetracycline] yielded a growth-inhibition zone of 30 mm.
As for `CC1=C(C(=O)O)N2C(=O)[C@@H](NC(=O)[C@H](N)c3ccccc3)[C@H]2SC1` [sephalexin, Cephalexin], where the note is “content 10 μg/disc”, the growth-inhibition zone was 0 mm and the “resistance … to the antibiotic” value is given as “strong”. The “resistance … to the antibiotic” value (content 10 μg/disc, listed as Cephalexin) is “resistance”.
On to Neomycin, for which, under “content 10 μg/disc”, the growth-inhibition zone is listed as 13 mm and the “resistance … to the antibiotic” value was “moderate”. In addition, for the setting “content 10 μg/disc, listed as Neomycin”, the “resistance … to the antibiotic” value is recorded as “moderate resistance”.

The record behind these values is patent publication US7026161B2, “Lactobacillus sp. strain and use thereof” (Sesang Life Science, Inc., priority 2001, dated 2006).
